Assays:
Cbl-b (aa36-427) [1] = target: T1, Cbl-b (aa36-427) (Homo sapiens, UniProt Q13191); assay: Biotin-labelled Cbl-b biochemical assay (CBLB/E2-Ub binding, HTRF); conditions: 5.0 nM biotin labelled Cbl-b
T1 construct: Cbl-b (aa36-427, in-house); made in house
Experimental: (§1) The assay in the absence of a Cbl-b/Cbl inhibitor, where phosphorylation of Cbl-b/Cbl by the Src kinase allows UbcH5B-Ub to bind to Cbl-b/Cbl and brings the Bodipy-Fluorescein tagged ubiquitin in proximity to the streptavidin-terbium bound to the N-terminal biotinylated Avi-tagged Cbl-b/Cbl. […] The lack of a FRET signal indicates Cbl-b/Cbl is inhibited by the Cbl-b/Cbl inhibitor.
(§2) 5.0 nM recombinant biotin labelled Cbl-b was pre-incubated with a serial dilution of compounds (maximum concentration is 100 μM, 3-fold serially diluted, 16 points) at room temperature for 1.5 hour in an assay buffer containing 50 mM HEPES, pH 7.0, 100 mM NaCl, 0.01% BSA, 1 mM DTT, 0.01% Triton X-100. Then 25 nM in-house UbcH5B-Ub conjugate protein, 60 nM SRC (aa251-536, in-house), 0.5 mM ATP, 5 mM MgCl2 and Streptavidin-Tb cryptate (Cat: 610SATLB, Cisbio Bioassays) were added to plate and further incubated at room temperature for 2 hours.

Cbl (aa49-434) [2] = target: T2, Cbl (aa49-434) (Homo sapiens, UniProt P22681); assay: Biotin-labelled Cbl biochemical assay (CBL/E2-Ub binding, HTRF); conditions: 5.0 nM biotin labelled Cbl
T2 construct: Cbl (aa49-434, in-house); made in house
T2 sequence (P22681 49-434): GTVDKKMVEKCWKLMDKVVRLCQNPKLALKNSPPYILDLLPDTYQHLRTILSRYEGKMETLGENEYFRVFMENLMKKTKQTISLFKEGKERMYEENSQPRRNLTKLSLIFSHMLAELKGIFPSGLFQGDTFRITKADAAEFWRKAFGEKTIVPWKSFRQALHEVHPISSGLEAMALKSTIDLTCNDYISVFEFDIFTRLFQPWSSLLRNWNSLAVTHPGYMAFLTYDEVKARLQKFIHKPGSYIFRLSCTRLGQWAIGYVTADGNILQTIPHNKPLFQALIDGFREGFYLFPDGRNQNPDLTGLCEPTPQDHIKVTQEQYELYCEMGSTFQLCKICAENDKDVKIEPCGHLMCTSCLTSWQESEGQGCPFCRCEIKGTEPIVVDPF
Experimental: as §1
as §2, with “labelled Cbl” for “labelled Cbl-b”, “100 µM,” for “100 μM,”, “Then 10” for “Then 25”

Cbl-b (aa36-427) [3] = target: T1, Cbl-b (aa36-427); assay: Co-expressed Cbl-b with BirA biochemical assay (CBLB/E2-Ub binding, HTRF); conditions: 0.6 nM Cbl-b co-expressed with BirA, HTRF; read-out: co-express CBLB/E2-Ub-binding assay IC50
Description: as §1

Cbl (aa49-434) [4] = target: T2, Cbl (aa49-434); assay: Co-expressed Cbl with BirA biochemical assay (CBL/E2-Ub binding, HTRF); conditions: 0.6 nM Cbl co-expressed with BirA, read-out: co-express CBL/E2-Ub-binding assay IC50
Description: as §1

T1 sequence (Q13191 36-427): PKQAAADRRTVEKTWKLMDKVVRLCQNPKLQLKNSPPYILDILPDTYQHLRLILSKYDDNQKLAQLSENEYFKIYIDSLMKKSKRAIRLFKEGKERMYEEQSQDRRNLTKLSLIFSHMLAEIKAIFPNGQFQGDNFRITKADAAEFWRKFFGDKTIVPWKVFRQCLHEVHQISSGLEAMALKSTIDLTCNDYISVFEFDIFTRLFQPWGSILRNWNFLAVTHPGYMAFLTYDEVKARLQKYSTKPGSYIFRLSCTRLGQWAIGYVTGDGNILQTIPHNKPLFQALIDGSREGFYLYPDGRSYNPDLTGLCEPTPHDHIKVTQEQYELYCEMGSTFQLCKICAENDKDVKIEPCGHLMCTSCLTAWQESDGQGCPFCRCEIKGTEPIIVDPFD

Structure (SMILES) | IC50 (Cbl-b (aa36-427) [1]) | IC50 (Cbl (aa49-434) [2]) | IC50 (Cbl-b (aa36-427) [3]) | IC50 (Cbl (aa49-434) [4])
C[C@@H]1CN(Cc2cc(C(=O)Nc3cccc([C@]4(c5nncn5C)C[C@@H](CC#N)C4)c3)c3nccn3c2)CCO1 [Compound A5, N-(3-((1s,3S)-3-(cyanomethyl)-1-(4-methyl-4H-1,2,4-triazol-3-yl)cyclobutyl)phenyl)-6-(((R)-2-methylmorpholino)methyl)imidazo[1,2-a]pyridine-8-carboxamide] | 138 nM | 914 nM | – | –
C[C@H]1CCCN(Cc2cc(C(=O)Nc3cccc([C@]4(Cc5nncn5C)C[C@@H](C#N)C4)c3)c3nccn3c2)C1 [Compound A4, N-(3-((1r,3S)-3-cyano-1-((4-methyl-4H-1,2,4-triazol-3-yl)methyl)cyclobutyl)phenyl)-6-(((S)-3-methylpiperidin-1-yl)methyl)imidazo[1,2-a]pyridine-8-carboxamide] | 3.3 nM | 28.7 nM | – | –
C[C@H]1CCCN(Cc2cc(C(=O)Nc3cccc([C@]4(c5nncn5C)C[C@@H](CC#N)C4)c3)nc3c2CCC3(F)F)C1 [Compound C6, N-(3-((1s,3R)-3-(cyanomethyl)-1-(4-methyl-4H-1,2,4-triazol-3-yl)cyclobutyl)phenyl)-7,7-difluoro-4-(((S)-3-methylpiperidin-1-yl)methyl)-6,7-dihydro-5H-cyclopenta[b]pyridine-2-carboxamide] | 3.4 nM | 48 nM | – | –
C[C@H]1CCCN(Cc2cc(C(=O)Nc3cccc([C@]4(c5nncn5C)C[C@@H](C)C4)c3)nc3c2CC[C@@H]3C)C1 (single isomer, unassigned) [Compound C3, (S)-7-methyl-N-(3-((1s,3R)-3-methyl-1-(4-methyl-4H-1,2,4-triazol-3-yl)cyclobutyl)phenyl)-4-(((S)-3-methylpiperidin-1-yl)methyl)-6,7-dihydro-5H-cyclopenta[b]pyridine-2-carboxamide or (R)-7-methyl-N-(3-((1s,3S)-3-methyl-1-(4-methyl-4H-1,2,4-triazol-3-yl)cyclobutyl)phenyl)-4-(((S)-3-methylpiperidin-1-yl)methyl)-6,7-dihydro-5H-cyclopenta[b]pyridine-2-carboxamide] | 4.8 nM | 21.7 nM | – | –
CC1CCc2c(CN3CCC[C@H](C)C3)cc(C(=O)Nc3cccc([C@]4(c5nncn5C)C[C@@H](C)C4)c3)nc21 (stereo partly drawn) [Compound C2, 7-methyl-N-(3-((1s,3R)-3-methyl-1-(4-methyl-4H-1,2,4-triazol-3-yl)cyclobutyl)phenyl)-4-(((S)-3-methylpiperidin-1-yl)methyl)-6,7-dihydro-5H-cyclopenta[b]pyridine-2-carboxamide] | 11.9 nM | 28.8 nM | – | –
C[C@H]1CCCN(Cc2cc(C(=O)Nc3cccc([C@]4(c5nncn5C)C[C@@H](C)C4)c3)nc3c2CC[C@@H]3C)C1 (single isomer, unassigned) [Compound C4, (S)-7-methyl-N-(3-((1s,3R)-3-methyl-1-(4-methyl-4H-1,2,4-triazol-3-yl)cyclobutyl)phenyl)-4-(((S)-3-methylpiperidin-1-yl)methyl)-6,7-dihydro-5H-cyclopenta[b]pyridine-2-carboxamide or (R)-7-methyl-N-(3-((1s,3S)-3-methyl-1-(4-methyl-4H-1,2,4-triazol-3-yl)cyclobutyl)phenyl)-4-(((S)-3-methylpiperidin-1-yl)methyl)-6,7-dihydro-5H-cyclopenta[b]pyridine-2-carboxamide] | 16.2 nM | 76 nM | – | –
C[C@H]1CCCN(Cc2cc(C(=O)Nc3cccc([C@]4(c5nncn5C)C[C@@H](C)C4)c3)nc3c2CCC3(F)F)C1 [Compound C5, 7,7-difluoro-N-(3-((1s,3R)-3-methyl-1-(4-methyl-4H-1,2,4-triazol-3-yl)cyclobutyl)phenyl)-4-(((S)-3-methylpiperidin-1-yl)methyl)-6,7-dihydro-5H-cyclopenta[b]pyridine-2-carboxamide] | 8.3 nM | 29.1 nM | – | –
C[C@H]1CCCN(Cc2cc(C(=O)Nc3cccc([C@]4(c5nncn5C)C[C@@H](C)C4)c3)c3nccn3c2)C1 [Compound A1, N-(3-((1s,3R)-3-methyl-1-(4-methyl-4H-1,2,4-triazol-3-yl)cyclobutyl)phenyl)-6-(((S)-3-methylpiperidin-1-yl)methyl)imidazo[1,2-a]pyridine-8-carboxamide] | 5.36 nM | 31.8 nM | – | –
CC1CC(c2cccc(NC(=O)c3cc(CN4CCC[C@H](C)C4)c4c(n3)CCC4)c2)(c2nncn2C)C1 (stereo partly drawn) [Compound C1, (S)—N-(3-(3-methyl-1-(4-methyl-4H-1,2,4-triazol-3-yl)cyclobutyl)phenyl)-4-((3-methylpiperidin-1-yl)methyl)-6,7-dihydro-5H-cyclopenta[b]pyridine-2-carboxamide] | 11 nM | 60 nM | – | –
C[C@H]1CCCN(Cc2cc(C(=O)Nc3cccc([C@]4(c5nncn5C)C[C@H](C)C4)c3)c3nccn3c2)C1 [Compound A2, N-(3-((1r,3S)-3-methyl-1-(4-methyl-4H-1,2,4-triazol-3-yl)cyclobutyl)phenyl)-6-(((S)-3-methylpiperidin-1-yl)methyl)imidazo[1,2-a]pyridine-8-carboxamide] | 3.26 nM | 23 nM | – | –
C[C@H]1CCCN(Cc2cc(C(=O)Nc3cccc([C@]4(c5nncn5C)C[C@@H](CC#N)C4)c3)c3nccn3c2)C1 [Compound A3, N-(3-((1s,3R)-3-(cyanomethyl)-1-(4-methyl-4H-1,2,4-triazol-3-yl)cyclobutyl)phenyl)-6-(((S)-3-methylpiperidin-1-yl)methyl)imidazo[1,2-a]pyridine-8-carboxamide] | 5.8 nM | 60.1 nM | 7.1 nM | 47 nM

Source: US20250163047A1, “HETEROCYCLIC COMPOUNDS, COMPOSITIONS THEREOF, AND METHODS OF TREATMENT THEREWITH” (BeiGene, Ltd., priority 2022, published 2025)
